# From patent publication US12070457B2, “Substituted pyridines, pyridazines, pyrimidines, and 1,2,3-triazines as bruton's tyrosine kinase inhibitors” (HUTCHISON MEDIPHARMA LIMITED, priority 2020, dated 2024)
# Key:
# BTK recombinant protein = BTK recombinant protein (Homo sapiens (Human), UniProt Q06187); assay: Determination of biochemical BTK (Z'-LYTE kinase assay)
# Excerpt: Example 2 Determination of Biochemical BTK
# (§1) 1. Reagents and Materials
# • BTK recombinant protein: Invitrogen, Cat #PV3363; • Z′-LYTE® kinase test kit-tyrosine 1 peptide: Invitrogen, Cat #PV3190; • 384-well low-flange black flat-bottomed polystyrene NBS microplate, no lid, no sterilization: Corning, Cat #3575; • 96-well polystyrene conical-bottomed MicroWell™ plate, sealed with a lid: Thermo Scientific™ Nunc™, Cat #277143; • Envision multi-mode plate reader: PerkinElmer; • Mixmate® shaker: Eppendorf; • TS-2102 shaking incubator: TENSUC; 2. Methods
# Z′-LYTE® biochemical assay employs a fluorescence resonance energy transfer (FRET)-based, coupled-enzyme format and is based on the differential sensitivity of phosphorylated and non-phosphorylated peptides to proteolytic cleavage. Both ends of the short peptide substrate are labeled with two fluorescent groups to form a FRET paired combination. In the primary reaction (the Kinase Reaction), the kinase transfers the γ-phosphate of ATP to a single […] residue on the short peptide substrate. In the secondary reaction (the development reaction), the non-phosphorylated short peptides were recognized and cleaved by a site-specific protease (the development reagent). Phosphorylated short peptides can resist such cleavage. Cleavage of short peptides can disrupt the donor (such as coumarin) and receptor fluorophores (fluorescein) on the short peptides, while the phosphorylated short peptides can maintain FRET. The calculation method of the ratio is as follows, and the ratio of the respective emission signals generated by the donor fluorophores emitted (after excitation at 400 nm) to the receptors is calculated. Emission signal ratio=emitted light by coumarin (445 nm)/emitted light by fluorescein (520 nm). If the FRET short peptide is phosphorylated (such as no kinase inhibitor), the emitted light ratio will remain in a lower level. If the FRET short peptide is non-phosphorylated (such as kinase inhibitor), the emitted light ratio will be in a higher level. In this way, the inhibitory effects of different compound inhibitors on BTK kinase activity would be distinguished.
# The experiment were carried out according to the instructions of the Z′-LYTE® kinase test kit-tyrosine 1 peptide. Reagent preparation: 1.33× kinase buffer: 5× kinase buffer was diluted with water to 1.33× kinase buffer; an enzyme solution: the kinase was dissolved in 1.33× kinase buffer with the final working concentration being 3.32 nM; a short peptide solution: a short peptide stock solution (1 mM dissolved in DMSO) was dissolved in 1.33× kinase buffer with the final working concentration being 2 μM; Z′-LYTE Tyr01 phosphorylated short peptide solution, 0.6 μl of stock solution (1 mM dissolved in DMSO) was dissolved in 149.4 μl of 1.33× kinase buffer; an ATP solution: an ATP stock solution (10 mM aqueous solution) was dissolved in 1.33× kinase buffer with the final working concentration being 32 μM; a color-developing solution: color-developing solution B was dissolved in color-developing buffer with the final working concentration being 1× color-developing solution; 4× compound preparation: the compound was diluted in 3-fold gradient concentration to finally obtain 4% DMSO aqueous solution containing different concentrations of the compound, with the final working concentration being 3000, 1000, 333.33, 111.11, 37.04, 12.35, 4.12, 1.37 nM, 8 concentration points in total.
# Specific steps of the experiment: In the experiment, there were three control groups, each with 8 replicate wells, which were C1 100% inhibition group (no ATP), C2 0% inhibition group (with ATP), and C3 100% phosphorylation group, respectively. 2.5 μl of serially diluted compound was added to each well of a 384-well plate, with double replicate wells, and 4% DMSO solution was added to wells C1, C2, and C3. […]
# [1] = target: phosphorylated BTK in Ramos cells (Homo sapiens (Human), UniProt Q06187); assay: Determination of phosphorylated BTK in Ramos cells (BTK phospho-Y223 HTRF); type: cell-based
# Method: Determination of Phosphorylated BTK in Ramos Cells
# as §1
# • Ramos cells: Ramos cells were purchased from American Standard Biological Collection Center ATCC Cell Bank, PRMI 1640 medium containing L-glutamine, 1.5 g/L of sodium bicarbonate, 2.383 g/L of HEPES solution, 0.11 g/L of sodium pyruvate and 4.5 g/L of glucose was used, added 10% fetal bovine serum FBS, and placed in a 5% C02, 37° C. cell incubator for normal culture; • PRMI 1640 medium: GIBCO, Cat #A10491-01; • Fetal bovine serum (FBS): GIBCO, Cat #100100-147; • Hank's balanced salt solution (HBSS): GIBCO, Cat #14025-092; • Immunoglobulin M (IgM): Jackson Immuno, Cat #109-006-129; • 3% hydrogen peroxide (3% H2O2): Sigma, Cat #88597-100 ML-F; • Phosphorylated BTK HTRF detection kit (BTK phospho-Y223 HTRF kit): Cisbio, Cat #63ADK017PEH; • Microwell plate reader: Envision, Perkin Elmer; • 384-well plate CulturPlate™384: Perkin Elmer, Cat #6007680 • 96-well plate: Corning, Cat #3799. 2. Methods
# Ramos cells were starved in PRMI 1640 medium with 1% FBS for 2 hours. The starved Ramos cells were diluted with Hank's balanced salt solution to 5.0×10^6 cells/ml, seeded in a 96-well plate with 20 μL/well (1.0×10^5 cells/well), and cultured in a 5% CO2, 37° C. cell incubator. […]
# The 384 well plate incubated overnight in the constant temperature incubator was taken out to detect the luminescence signal using the Envision microwell plate reader at the […]. The reading value at 665 nm/615 nm of each well multiplied by 104 was used as the signal value of each well.
# The average signal value of the wells supplemented with the mixed solution of human immunoglobulin M (final concentration was 10 μg/mL) and hydrogen peroxide (final concentration was 3.3 mM) without the test compound was regarded as the high value, and the average signal value of the wells without immunoglobulin M stimulation and without the test compound was regarded as the low value. According to the signal value in each well, the inhibition ratio (%) of each concentration of compounds was calculated, and the 205 model in XL-Fit 5.3 software (ID Business Solutions Limited) was used to obtain an IC50 value. […]
# [2] = test system: B cell activation in mice whole blood (BTK target); assay: In vivo inhibitory effect on BTK target (anti-IgD antibody-induced B cell activation in mice whole blood); set-up: species or system mouse
# Method: Objects: B cells in mice whole blood were induced and activated by the anti-IgD antibody, and the inhibitory effect of the compound of the present invention on B cell activation in vivo was studied, so as to determine the inhibitory effect of the compound of the present invention on the BTK target in vivo.
# Methods: C57BL/6 mice (female, 18-20 g, purchased from Shanghai Lingchang Biotechnology Co., Ltd.) were grouped according to Table 2.
# The animals of each group were administered, then were placed in CO2 for anesthesia at designated time points, blood samples were taken from rats via retro-orbital bleeding, and heparin was used for anticoagulation; 90 μL of whole blood was taken from mice of each group, and added to a 96 well culture plate, and anti-mouse IgD antibody (BIO-RAD, Cat #MCA4693) was added to each well to a final concentration of 0.01 μg/μL (respectively for the each drug-treated group and anti-IgD antibody-inducted vehicle group); in addition, 90 μL of whole blood of mice in the vehicle group was taken and added to the 96-well culture plate, and PBS (phosphate buffer, GIBCO, Cat #C20012500BT) was added to each well to a final concentration of 0.01 μg/μL (namely, the vehicle control group); Each group was mixed well and incubated in a 37° C./5% CO2 incubator for 4 hours. In addition, the blood of mice in the drug-treated group was centrifuged to separate plasma for blood concentration analysis.
# B cell activation ratio=percentage of CD69^+CD19^+ double positive B cells/percentage of CD19^+ single positive B cells
# All data are represented by mean±standard error. For the comparison between each drug-treated group and the anti-IgD antibody-induced vehicle group, p value was calculated by Graphpad Prism using one-way ANOVA analysis of variance and Dunnett's test, and for the comparison between each drug-treated group, p value was calculated by using unpaired t test.
# phosphorylated BTK in Ramos cells, sequence (Q06187 whole entry): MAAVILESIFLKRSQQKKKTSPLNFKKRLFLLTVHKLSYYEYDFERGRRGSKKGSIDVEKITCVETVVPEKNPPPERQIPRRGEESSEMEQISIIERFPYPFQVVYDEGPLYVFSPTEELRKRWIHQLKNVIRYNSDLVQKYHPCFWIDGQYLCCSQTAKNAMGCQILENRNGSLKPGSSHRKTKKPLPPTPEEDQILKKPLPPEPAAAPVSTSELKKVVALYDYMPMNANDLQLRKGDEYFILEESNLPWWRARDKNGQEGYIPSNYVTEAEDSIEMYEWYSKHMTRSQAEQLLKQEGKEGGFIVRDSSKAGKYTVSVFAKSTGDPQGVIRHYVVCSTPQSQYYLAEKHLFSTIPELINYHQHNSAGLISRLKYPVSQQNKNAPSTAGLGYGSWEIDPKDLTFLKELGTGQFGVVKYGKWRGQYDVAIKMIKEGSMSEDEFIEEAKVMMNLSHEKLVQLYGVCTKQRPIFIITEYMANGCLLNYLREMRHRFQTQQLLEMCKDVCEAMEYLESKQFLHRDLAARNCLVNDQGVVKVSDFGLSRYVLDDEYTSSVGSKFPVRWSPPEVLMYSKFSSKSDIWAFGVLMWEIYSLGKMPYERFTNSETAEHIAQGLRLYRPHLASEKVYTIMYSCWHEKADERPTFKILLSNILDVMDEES
# BTK recombinant protein, sequence (Q06187 whole entry): as above
IC50 (BTK recombinant protein) [nM],IC50 [1] [nM],Structure (SMILES),"B cell activation ratio (the proportion of activated B cells to total B cells) ([2]; 5 mg/kg oral single, 16 h)","Inhibition ratio (%) ([2]; 5 mg/kg oral single, 16 h)","inhibition ratio on B cell activation ([2]; 5 mg/kg, after 16 hours of administration, anti-IgD antibody-induced, mice whole blood) [%]"
12,8,Cn1cc(-c2ccnc(-n3ccn4c5c(cc4c3=O)CC(C)(C)C5)c2CO)cc(Nc2ccc(N3CCN4CCOCC4C3)cn2)c1=O (racemic) [Compound 232],,,
,,Cn1cc(-c2ccnc(-n3ccn4c5c(c(F)c4c3=O)CCCC5)c2CO)cc(Nc2cc3n(n2)CCOC3)c1=O [compound 176],13.9,48,48
